This assay addresses kappa opioid receptor (KOR) (Homo sapiens, UniProt P41145). Nature of the assay: GTPγS assay, antagonism of U69, […], concentration-response. Type of assay: biochemical.
Chain of kappa opioid receptor (KOR) (P41145 whole entry): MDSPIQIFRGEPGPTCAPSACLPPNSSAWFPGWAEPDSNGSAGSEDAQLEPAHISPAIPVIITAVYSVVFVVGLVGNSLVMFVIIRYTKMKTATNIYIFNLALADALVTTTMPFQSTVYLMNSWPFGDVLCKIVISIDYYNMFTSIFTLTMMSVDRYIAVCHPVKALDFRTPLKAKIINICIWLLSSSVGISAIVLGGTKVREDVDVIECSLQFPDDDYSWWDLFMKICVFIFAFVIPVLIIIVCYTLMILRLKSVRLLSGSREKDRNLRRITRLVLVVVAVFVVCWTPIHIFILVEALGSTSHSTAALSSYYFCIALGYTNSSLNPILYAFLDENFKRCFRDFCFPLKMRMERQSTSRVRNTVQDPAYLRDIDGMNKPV
As a reminder, the IC50 is the concentration at which inhibition is half-maximal. A higher IC50 goes with lower potency. In turn, `COc1ccc(N2CCN(CCCNC(=O)CN3C(=O)C4CCCCN4c4cc(C)cnc43)CC2)cc1` (racemic) [compound 28, N-(3-(4-(4-Methoxyphenyl)piperazin-1-yl)propyl)-2-(2-methyl-6-oxo-6,6a,7,8,9,10-hexahydro-5H-dipyrido[1,2-a:2′,3′-e]pyrazin-5-yl)acetamide] gave an IC50 of 906 nM.
With `COc1ccc(N2CCN(CCCNC(=O)CN3C(=O)[C@@H]4CCCN4c4cc(C)cnc43)CC2)cc1` [compound 27, (S)-N-(3-(4-(4-Methoxyphenyl)piperazin-1-yl)propyl)-2-(2-methyl-6-oxo-6a,7,8,9-tetrahydropyrido[2,3-e]pyrrolo[1,2-a]pyrazin-5(6H)-yl)acetamide] the figure was 2620 nM; with `COc1ccc(N2CCN(CCCNC(=O)CN3C(=O)[C@H](CC(C)C)Nc4cc(C)cnc43)CC2)cc1` [compound 29, (S)-2-(2-Isobutyl-7-methyl-3-oxo-2,3-dihydropyrido[2,3-b]-pyrazin-4(1H)-yl)-N-(3-(4-(4-methoxyphenyl)piperazin-1-yl)propyl)-acetamide], 433 nM; with `COc1ccc(N2CCN(CCCNC(=O)CN3C(=O)[C@@H]4CCCN4c4c(C)ccnc43)CC2)cc1` [compound 26, (S)-N-(3-(4-(4-Methoxyphenyl)piperazin-1-yl)propyl)-2-(1-methyl-6-oxo-6a,7,8,9-tetrahydropyrido[2,3-e]pyrrolo[1,2-a]pyrazin-5(6H)-yl)acetamide], 2820 nM.

These data come from paper PMC5278949 (The Journal of organic chemistry, 2016).
